The subject of this assay is L1210 leukemia ip in BDF1 mice, survival T/C. As to the kind of experiment: NCI In Vivo Anticancer Drug Screen. Data for tumor model L1210 Leukemia (intraperitoneal) in B6D2F1 (BDF1) mice. Conditions: endpoint: mean survival time, higher = longer survival. A digest of the protocol:
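Transplanted-tumor mice were given test agent; controls received vehicle only. Survival readings from the two groups were divided (treated over control).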

The mark [1] stands for this setting: dose: 100.0 mg/kg/injection, schedule: Q01DX001 (ip), vehicle: saline.
Where [2] appears, read: dose: 200.0 mg/kg/injection, schedule: Q01DX001 (ip), vehicle: saline.
Where [3] appears, read: dose: 400.0 mg/kg/injection, schedule: Q01DX001 (ip), vehicle: saline.
Setting [4] is: dose: 100.0 mg/kg/injection, schedule: Q01DX009 (ip), vehicle: saline.
Setting [5] is: dose: 100.0 mg/kg/injection, schedule: Q04DX003 (ip), vehicle: saline.
[6] abbreviates: dose: 200.0 mg/kg/injection, schedule: Q04DX003 (ip), vehicle: saline.
Setting [7] is: dose: 400.0 mg/kg/injection, schedule: Q04DX003 (ip), vehicle: saline.
Where [8] appears, read: dose: 200.0 mg/kg/injection, schedule: Q01DX009 (ip), vehicle: saline.
Where [9] appears, read: dose: 400.0 mg/kg/injection, schedule: Q01DX009 (ip), vehicle: saline.
Setting [10] is: dose: 100.0 mg/kg/injection, schedule: Q04DX003 (ip), vehicle: saline with Tween-80.
[11] abbreviates: dose: 200.0 mg/kg/injection, schedule: Q04DX003 (ip), vehicle: saline with Tween-80.
Setting [12] is: dose: 400.0 mg/kg/injection, schedule: Q04DX003 (ip), vehicle: saline with Tween-80.
Setting [13] is: dose: 12.5 mg/kg/injection, schedule: Q01DX009 (ip), vehicle: saline with Tween-80.
[14] abbreviates: dose: 25.0 mg/kg/injection, schedule: Q01DX009 (ip), vehicle: saline with Tween-80.

SMILES strings stand for the structures. Several values for one entry are separate records, joined by “and”; a condition that tells them apart may be missing. Identical values can stand only once. Inconclusive results and toxic doses are left out.

As for `Nc1cccn2ncnc12`, the T/C by setting is: under setting [1], 103 % of control; under setting [2], 104 % of control; under setting [3], 97 % of control.

Consider `CC1NCCOC1c1ccccc1` (centres undefined), for which the T/C was 93 % of control (dose: 12.5 mg/kg/injection, schedule: Q01DX009 (ip), vehicle: saline); 108 % of control and 92 % of control (dose: 25.0 mg/kg/injection, schedule: Q01DX009 (ip), vehicle: saline); 114 % of control (dose: 25.0 mg/kg/injection, schedule: Q04DX003 (ip), vehicle: saline); 100 % of control and 108 % of control (dose: 50.0 mg/kg/injection, schedule: Q01DX009 (ip), vehicle: saline); 103 % of control (dose: 50.0 mg/kg/injection, schedule: Q04DX003 (ip), vehicle: saline); 106 % of control under setting [4]. Besides, the T/C reads like this: under setting [5], 100 % of control; under setting [6], 88 % of control.

Turning to `CN(CC(C)(C)C(O)c1ccccc1)C(=O)c1ccccc1` (centres undefined), the T/C is, setting by setting: under setting [5], 102 % of control; under setting [6], 100 % of control; under setting [7], 96 % of control.

With `CSc1n[nH]c(=O)[nH]c1=S`, the T/C by setting is: under setting [1], 96 % of control; under setting [2], 101 % of control; under setting [3], 95 % of control.

As for `O=[N+]([O-])c1ccc(OCCN2CCCC2)cc1`, the T/C is, setting by setting: (dose: 75.0 mg/kg/injection, schedule: Q01DX001 (ip), vehicle: saline) 93 % of control; (dose: 150.0 mg/kg/injection, schedule: Q01DX001 (ip), vehicle: saline) 98 % of control.

In the case of `CC(=O)OC1OC2COC(C)(C)OCC2C(OC(C)=O)C1OC(C)=O` (centres undefined), the T/C runs as follows: (dose: 100.0 mg/kg/injection, schedule: Q01DX001 (ip), vehicle: saline with Tween-80) 96 % of control; (dose: 200.0 mg/kg/injection, schedule: Q01DX001 (ip), vehicle: saline with Tween-80) 104 % of control.

On to `Cn1ncc2c(Cl)ncnc21`, for which the T/C is 113 % of control (dose: 100.0 mg/kg/injection, schedule: Q01DX001 (ip), vehicle: other); 94 % of control (dose: 200.0 mg/kg/injection, schedule: Q01DX001 (ip), vehicle: other); 102 % of control (dose: 400.0 mg/kg/injection, schedule: Q01DX001 (ip), vehicle: other).

Regarding `Cc1ccc(S(=O)(=O)CCCCCl)cc1`, the T/C was 101 % of control under setting [1]; 100 % of control under setting [4]; 95 % of control under setting [5]; 96 % of control under setting [2]; 97 % of control under setting [8]; 92 % of control under setting [6]. Besides, the T/C under setting [3] was 104 % of control, the T/C under setting [9] is 89 % of control and the T/C under setting [7] was 98 % of control.

For the compound `CNS(=O)(=O)c1ccccc1CC(O)(c1ccccc1)c1ccccc1`, the T/C is 88 % of control (dose: 100.0 mg/kg/injection, schedule: Q01DX001 (ip), vehicle: steriod suspending solution) and 87 % of control (dose: 200.0 mg/kg/injection, schedule: Q01DX001 (ip), vehicle: steriod suspending solution).

As for `CCOC(=O)NC(=S)Nc1ccccc1NC(=S)NC(=O)OCC`, the T/C reads like this: (dose: 100.0 mg/kg/injection, schedule: Q04DX003 (ip), vehicle: gum acacia) 97 % of control; (dose: 200.0 mg/kg/injection, schedule: Q04DX003 (ip), vehicle: gum acacia) 97 % of control; (dose: 400.0 mg/kg/injection, schedule: Q04DX003 (ip), vehicle: gum acacia) 94 % of control.

For the compound `Nc1ccc(S(=O)(=O)CC(=O)N2CCOCC2)cc1`, the T/C is 100 % of control under setting [10], 97 % of control under setting [11] and 97 % of control under setting [12].

With `N#CC1(C#N)C2C=CC(C3C(Cl)C=CC32)C1(C#N)C#N` (centres undefined), the T/C is, setting by setting: under setting [13], 87 % of control; (dose: 12.5 mg/kg/injection, schedule: Q04DX003 (ip), vehicle: saline with Tween-80) 96 % of control; under setting [14], 89 % of control; (dose: 25.0 mg/kg/injection, schedule: Q04DX003 (ip), vehicle: saline with Tween-80) 94 % of control; (dose: 50.0 mg/kg/injection, schedule: Q04DX003 (ip), vehicle: saline with Tween-80) 97 % of control.

For the compound `CCNc1nnc(N=Nc2ccccc2)s1`, the T/C by setting is: under setting [13], 97 % of control; under setting [14], 102 % of control and 92 % of control; (dose: 50.0 mg/kg/injection, schedule: Q01DX009 (ip), vehicle: saline with Tween-80) 86 % of control; (dose: 100.0 mg/kg/injection, schedule: Q01DX009 (ip), vehicle: saline with Tween-80) 91 % of control; (dose: 100.0 mg/kg/injection, schedule: Q04DX002 (ip), vehicle: saline with Tween-80) 170 % of control; (dose: 200.0 mg/kg/injection, schedule: Q04DX002 (ip), vehicle: saline with Tween-80) 98 % of control. In addition, the T/C runs as follows: (dose: 400.0 mg/kg/injection, schedule: Q01DX009 (ip), vehicle: saline with Tween-80) 91 % of control; (dose: 400.0 mg/kg/injection, schedule: Q04DX002 (ip), vehicle: saline with Tween-80) 98 % of control.

For the compound `CCOS(=O)(=O)c1ccc([N+](=O)[O-])cc1[N+](=O)[O-]`, the T/C under setting [4] is 97 % of control and the T/C under setting [8] was 92 % of control.

In the case of `c1ccc([As+](c2ccccc2)(c2ccccc2)c2ccccc2)cc1`, the T/C was 120 % of control (dose: 1.1 mg/kg/injection, schedule: Q01DX Z (ip), vehicle: carboxymethylcellulose (CMC)); 119 % of control (dose: 1.2 mg/kg/injection, schedule: Q04DX003 (ip), vehicle: carboxymethylcellulose (CMC)); 104 % of control and 119 % of control (dose: 1.7 mg/kg/injection, schedule: Q01DX Z (ip), vehicle: carboxymethylcellulose (CMC)); 101 % of control (dose: 2.5 mg/kg/injection, schedule: Q01DX Z (ip), vehicle: carboxymethylcellulose (CMC)); 119 % of control (dose: 2.5 mg/kg/injection, schedule: Q01DX Z (ip), vehicle: methylcellulose (MC)); 117 % of control (dose: 2.5 mg/kg/injection, schedule: Q04DX003 (ip), vehicle: carboxymethylcellulose (CMC)). Further, the T/C is 107 % of control (dose: 3.76 mg/kg/injection, schedule: Q01DX Z (ip), vehicle: carboxymethylcellulose (CMC)); 115 % of control (dose: 5.0 mg/kg/injection, schedule: Q01DX001 (ip), vehicle: carboxymethylcellulose (CMC)); 106 % of control (dose: 5.0 mg/kg/injection, schedule: Q01DX001 (ip), vehicle: saline); 116 % of control (dose: 5.0 mg/kg/injection, schedule: Q04DX003 (ip), vehicle: carboxymethylcellulose (CMC)); 102 % of control (dose: 5.56 mg/kg/injection, schedule: Q01DX Z (ip), vehicle: carboxymethylcellulose (CMC)); 106 % of control (dose: 10.0 mg/kg/injection, schedule: Q01DX001 (ip), vehicle: saline).

In the case of `O=C(OCCn1c(-c2ccccn2)nc2ccccc21)C(O)(c1ccccc1)c1ccccc1`, the T/C was 102 % of control (dose: 100.0 mg/kg/injection, schedule: Q01DX001 (ip), vehicle: Klucel (hydroxypropylcellulose) (HPC)) and 93 % of control (dose: 200.0 mg/kg/injection, schedule: Q01DX001 (ip), vehicle: Klucel (hydroxypropylcellulose) (HPC)).

As for `CC(C)(C)COC(=O)C(C)(C)CC(C)(C)C`, the T/C was 93 % of control under setting [1]; 92 % of control (dose: 187.0 mg/kg/injection, schedule: Q01DX001 (ip), vehicle: carboxymethylcellulose (CMC)); 102 % of control under setting [2]; 97 % of control (dose: 267.0 mg/kg/injection, schedule: Q01DX001 (ip), vehicle: carboxymethylcellulose (CMC)); 96 % of control (dose: 400.0 mg/kg/injection, schedule: Q01DX001 (ip), vehicle: carboxymethylcellulose (CMC)); 96 % of control (dose: 600.0 mg/kg/injection, schedule: Q01DX001 (ip), vehicle: carboxymethylcellulose (CMC)).

On to `C(=C\c1ccnc2ccccc12)/c1ccccc1`, for which the T/C is, setting by setting: under setting [4], 101 % of control; under setting [10], 89 % of control; under setting [8], 101 % of control; under setting [11], 94 % of control; under setting [9], 100 % of control; under setting [12], 89 % of control.

For `CN(C)c1ccc(/C=C/c2cc[n+](C)cc2)cc1`, the T/C is, setting by setting: (dose: 8.0 mg/kg/injection, schedule: Q04DX003 (ip), vehicle: saline with Tween-80) 100 % of control; (dose: 16.0 mg/kg/injection, schedule: Q04DX003 (ip), vehicle: saline with Tween-80) 95 % of control.
